Measured values published in patent EP4306106A1, “NITRO-CONTAINING COMPOUNDS, COMPOSITIONS AND USES THEREOF” (Universidade de Aveiro, priority 2022, dated 2024).

system: total HDAC; assay: In vitro total HDAC activity (Fluor-de-Lys, HeLa nuclear extract); format: biochemical, human; conditions: screening at 100 µM, result in words
Procedure: In vitro total HDAC activity was measured according to manufacturer's instructions using a nuclear extract from HeLa cells (human cervical cancer cell line) as HDAC source incubated with the Fluor-de-Lys® substrate (50 µM) for 20 min at room temperature (Fluor-de-Lys®, Enzo® Life Sciences, Antwerpen, Belgium). Reaction was stopped by addition of a developing solution (Fluor-de-Lys® developer I concentrate, Enzo® Life Sciences) containing trichostatin A (TSA) (2 µM). After 15 min of incubation at room temperature, fluorescence signal was measured on a fluorescence microplate reader (SYNERGY HTX multi-mode reader) with an exciting wavelength of 360 nm and emission wavelength of 460 nm. All dilutions of tested compounds were prepared in dimethylsulfoxide (DMSO).
Representative examples of 3-aminopyridines and 3,5-disubstituted nitrobenzenes were screened for their total HDAC inhibition capacity at 100 µM (Table 2). It was observed that only nitro-containing examples were active in the total HDAC screening assay (compounds 1, 3, 9 and 5), which moved forward to the specific HDAC8 isoenzyme assay (Table 3).

| SMILES | total HDAC inhibition capacity |
| --- | --- |
| Nc1cc(C(=O)c2cc([N+](=O)[O-])ccc2O)cnc1-c1ccccc1 [Compound 1, (5-Amino-6-phenylpyridin-3-yl)(2-hydroxy-5-nitrophenyl)methanone] | active |
| Nc1cc(C(=O)c2ccccc2O)cnc1-c1ccc([N+](=O)[O-])cc1 [Compound 3, [5-Amino-6-(4-nitrophenyl)pyridin-3-yl](2-hydroxyphenyl)methanone] | active |
| O=C(c1cc(C(=O)c2cc([N+](=O)[O-])ccc2O)cc([N+](=O)[O-])c1)c1cc([N+](=O)[O-])ccc1O [Compound 5, (5-Nitro-1,3-phenylene)bis[(2-hydroxy-5-nitrophenyl)methanone]] | active |
| N#Cc1ccc(-c2ncc(C(=O)c3cc([N+](=O)[O-])ccc3O)cc2N)cc1 [Compound 9, 4-[3-amino-5-(2-hydroxy-5-nitrobenzoyl)pyridin-2-yl]benzonitrile] | active |

same assay, conditions: total HDAC activity, nuclear extract from HeLa cells, compound at 100 µM

| SMILES | %Inhibition at 100 µM |
| --- | --- |
| Nc1cc(C(=O)c2ccccc2O)cnc1-c1ccccc1 | Inactive |
| Nc1cc(C(=O)c2ccccc2O)cnc1-c1ccc2ccccc2c1 | Inactive |
| Cc1cc(C(=O)c2cnc(-c3ccccc3)c(N)c2)c(O)c([N+](=O)[O-])c1 | 67% |
| O=C(c1cc(C(=O)c2ccccc2O)cc([N+](=O)[O-])c1)c1ccccc1O | Inactive |
| Cc1ccc(O)c(C(=O)c2cc(C(=O)c3cc(C)ccc3O)cc([N+](=O)[O-])c2)c1 | Inactive |
| O=C(c1cc(C(=O)c2cc(Cl)ccc2O)cc([N+](=O)[O-])c1)c1cc(Cl)ccc1O | Inactive |
| COc1cccc(O)c1C(=O)c1cc(C(=O)c2c(O)cccc2OC)cc([N+](=O)[O-])c1 | Inactive |
| Cc1cc(C(=O)c2cc(C(=O)c3cc(C)cc([N+](=O)[O-])c3O)cc([N+](=O)[O-])c2)c(O)c([N+](=O)[O-])c1 | 65% |
| Nc1cc(C(=O)c2cc([N+](=O)[O-])ccc2O)cnc1-c1ccccc1 [drawing 28] | 78% |
| N#Cc1ccc(-c2ncc(C(=O)c3cc([N+](=O)[O-])ccc3O)cc2N)cc1 [drawing 29] | 82% |
| Nc1cc(C(=O)c2ccccc2O)cnc1-c1ccc([N+](=O)[O-])cc1 [drawing 30] | 67% |
| O=C(c1cc(C(=O)c2cc([N+](=O)[O-])ccc2O)cc([N+](=O)[O-])c1)c1cc([N+](=O)[O-])ccc1O [drawing 37] | 73% |

target: T1, recombinant protein HDAC8 (Homo sapiens, UniProt Q9BY41); assay: In vitro HDAC8 isoenzyme activity (Fluor-de-Lys-HDAC8 substrate); format: biochemical; conditions: 1 U/well, substrate 50 µM
T1 construct: purchased Enzo Life Sciences
T1 sequence (Q9BY41 1-377): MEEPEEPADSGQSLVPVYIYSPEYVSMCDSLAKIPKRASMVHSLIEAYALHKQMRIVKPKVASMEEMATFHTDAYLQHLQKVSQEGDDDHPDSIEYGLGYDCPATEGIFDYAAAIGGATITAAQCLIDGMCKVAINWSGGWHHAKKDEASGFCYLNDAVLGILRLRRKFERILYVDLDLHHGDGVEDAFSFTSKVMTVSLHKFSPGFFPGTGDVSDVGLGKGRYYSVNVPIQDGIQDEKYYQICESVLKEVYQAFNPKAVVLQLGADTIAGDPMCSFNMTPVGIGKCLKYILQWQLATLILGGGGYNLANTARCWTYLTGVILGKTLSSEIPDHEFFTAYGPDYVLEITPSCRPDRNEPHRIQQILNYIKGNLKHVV
Procedure: In vitro HDAC8 isoenzyme activity was tested using 1 U/well of recombinant protein HDAC8 (Enzo® Life Sciences) incubated with the Fluor-de-Lys®-HDAC8 substrate (50 µM) for 20 min at room temperature. Reactions were stopped by adding a developer II solution (Fluor-de-Lys® developer II concentrate, Enzo® Life Sciences) containing 2 µM of TSA. After 45 min of incubation at room temperature, fluorescence is measured as for total HDAC activity.

| IC50 [µM] | SMILES |
| --- | --- |
| 74 | Nc1cc(C(=O)c2cc([N+](=O)[O-])ccc2O)cnc1-c1ccccc1 [drawing 39] |
| 58 | N#Cc1ccc(-c2ncc(C(=O)c3cc([N+](=O)[O-])ccc3O)cc2N)cc1 [drawing 40] |

| SMILES | IC50 [µM] |
| --- | --- |
| O=C(c1cc(C(=O)c2cc([N+](=O)[O-])ccc2O)cc([N+](=O)[O-])c1)c1cc([N+](=O)[O-])ccc1O [Compound 5, (5-Nitro-1,3-phenylene)bis[(2-hydroxy-5-nitrophenyl)methanone]] | 27 |

system: total HDAC; assay: In vitro total HDAC activity (Fluor-de-Lys, HeLa nuclear extract); format: biochemical, human; conditions: nuclear extract from HeLa cells, 1µM (footnote a)

| SMILES | %Inhibition of 1µM |
| --- | --- |
| CC(/C=C/C(=O)NO)=C\[C@@H](C)C(=O)c1ccc(N(C)C)cc1 [Trichostatin A] | 90^a % |
